Test results reported in patent publication US10738067B2, “Inhibitors of cyclin-dependent kinase 7 (CDK7)” (Syros Pharmaceuticals, Inc., priority 2018, dated 2020).

Key:
HCC70 cells = experiment: HCC70 cell proliferation assay (CyQUANT Direct, 72 hours); assay type: cell-based; details: Homo sapiens, inhibition of proliferation
Protocol: The HCC70 cell line was derived from human TNBC, and we tested representative compounds of the invention, at different concentrations (from 4 μM to 126.4 pM; 0.5 log serial dilutions), for their ability to inhibit the proliferation of those cells. More specifically, we tested the same compounds tested above for CDK7 selectivity (the structures of which are shown in FIG. 1), and we used the known CDK inhibitors dinaciclib (or […]) and triptolide as positive controls. The cells were grown in ATCC-formulated RPMI-1640 medium (ATCC 30-2001) supplemented with 10% fetal bovine serum (FBS), at 37° C. in a humidified chamber in the presence of 5% CO2. We conducted proliferation assays over a 72-hour time period using a CyQUANT® Direct Cell Proliferation Assay (Life Technologies, Chicago, Ill. USA) according to the manufacturer's directions and utilizing the reagents supplied with the kit.

[1] = Tolerability in tumor-bearing mice (PDX studies); details: all once-daily doses tested
Protocol: (§2) In the TNBC model, Compound 101 was orally administered to tumor-bearing NOD/SCID mice at 10 mg/kg QD or 5 mg/kg BID for 21 days. In the SCLC and HGSOC models, Compound 101 was orally administered to tumor-bearing NOD/SCID mice at 3 mg/kg BID for 21 days. In the PDAC model, Compound 101 was orally administered to tumor-bearing NOD/SCID mice at 6 mg/kg QD. In the TNBC, SCLC, and HGSOC models, tumor volume was measured during the treatment period and for an additional 21 days after treatment ceased. […] The % regression was calculated as: (Mean TV Compound 101 @ EOT)/(Mean TV Compound 101 @Day 0)×100. The same calculations were used for end of study (day 42).
(§3) Dosing was initiated when tumors were 150-300 mm^3. Mice were treated with either Compound 101, QD (6 or 10 mg/kg once daily, by mouth) or BID (3 or 5 mg/kg twice daily, by mouth) over the course of 21 days, followed by 21 days of observation. TGI was calculated on the last day of dosing using the formula: TGI=(Vc1−Vt1)/(Vc0−Vt0), where Vc1 and Vt1 are the mean volumes of control and treated groups at the time of tumor extraction, while Vc0 and Vt0 are the same groups at the start of dosing.

in vivo = details: NOD/SCID, mouse, oral
Protocol: as §2, §3

[2] = test system: 12 PDX models representing SCLC, TNBC and HGSOC; experiment: Tumor growth inhibition in 12 PDX models (SCLC, TNBC, HGSOC); assay type: in vivo, Mice
Protocol: We evaluated TGI in 12 different PDX models (Crown Biosciences) in various tumor indications with PDXs representing SCLC (n=5; LU5180, LU5178, LU5192, LU5173, LU5210), TNBC (n=4; BR5010, BR1458, BR5399, BR10014) and HGSOC (n=3; OV15398, OV5392, OV15631). Dosing was initiated when tumors were 150-300 mm^3. […] TGI was calculated on the last day of dosing using the formula: TGI=(Vc1−Vt1)/(Vc0−Vt0), where Vc1 and Vt1 are the mean volumes of control and treated groups at the time of tumor extraction, while Vc0 and Vt0 are the same groups at the start of dosing.

[3] = test system: palbociclib-resistant ER+BC PDX (ST1799); experiment: Tumor growth inhibition in palbociclib-resistant ER+BC PDX model ST1799; assay type: in vivo, Mice; details: last day of 28 days dosing, Compound 101 6 mg/kg QD PO, fulvestrant 2.5 mg/kg once weekly SC, palbociclib 50 mpk QD PO
Protocol: (§1) Tumor growth inhibition was evaluated in estrogen receptor-positive breast cancer (ER+BC) PDX models selected in vivo for resistance to the CDK4/6 inhibitor palbociclib (ST1799, n=1) or resistance to both palbociclib and fulvestrant (ST941, n=1). Dosing was initiated when tumors were 100-200 mm^3.

[4] = test system: PDX models BR5010 (TNBC), LU5178 (SCLC), OV15398 (HGSOC); experiment: Tumor growth inhibition in TNBC, SCLC and HGSOC PDX models; assay type: in vivo, NOD/SCID mice
[5] = test system: ST390 (modeling pancreatic ductal adenocarcinoma (PDAC)); experiment: Tumor growth inhibition in PDAC PDX model ST390; assay type: in vivo, NOD/SCID mice
Protocol: as §2

[6] = test system: palbociclib and fulvestrant double-resistant ER+BC PDX model (ST941); experiment: Tumor growth inhibition in palbociclib and fulvestrant double-resistant ER+BC PDX model ST941; assay type: in vivo, Mice; details: fulvestrant 2.5 mg/kg once weekly SC; for anti-tumor activity (in words): palbociclib 50 mpk QD PO
Protocol: as §1

Structure (SMILES): C[C@H]1CC[C@H](Nc2ncc(C(F)(F)F)c(-c3c[nH]c4c(P(C)(C)=O)c(C#N)ccc34)n2)CN1 [Compound 100, 7-dimethylphosphoryl-3-[2-[[(3S, 6S)-6-methyl-3-piper-idyl]amino]-5-(trifluoromethyl)pyrimidin-4-yl]-1H-indole-6-carbonitrile]
- EC50 (HCC70 cells): 0.98 nM

Structure (SMILES): CC1(C)CC[C@H](Nc2ncc(C(F)(F)F)c(-c3c[nH]c4c(P(C)(C)=O)c(C#N)ccc34)n2)CN1 [Compound 101, (S)-7-(dimethylphosphoryl)-3-(2-((6,6-dimethylpiperidin-3-yl)amino)-5-(trifluoromethyl)pyrimidin-4-yl)-1H-indole-6-carbonitrile]
- body weight loss (tolerability) [1]: no evident body weight loss
- EC50 (HCC70 cells): 5.6 nM
- MTD at 21 days (in vivo): > 10 mg/kg
- TGI at the end of the 21-day dosing period ([2]; all 12 PDX models, 6 or 10 mg/kg QD or 3 or 5 mg/kg BID, by mouth): at least 50%
- tumor regrowth after treatment discontinuation ([2]; subset of models (7/12), 21 days after treatment discontinuation): no evidence of tumor regrowth
- TGI of deep responses (TGI or regression) ([2]; subset of models (58%, 7/12)): > 95%
- Tumor growth inhibition (TGI) [3]: 83%
- TGI (in words) ([4]; TNBC 10 mg/kg QD or 5 mg/kg BID, SCLC and HGSOC 3 mg/kg BID, oral, 21 days, plus 21 days observation): deep and sustained TGI, including regressions
- transcriptional responses in xenograft tissue ([4]; observed within 4 hours of dosing, sustained for 24 hours): Dose-dependent transcriptional responses
- Tumor growth inhibition (TGI) ([5]; 6 mg/kg QD PO, over ~28 days, sub-MTD dose): 100%
- tumor volume ([5]; day 21, 6 mg/kg QD, PO): about 250 mm^3
- Tumor growth inhibition (TGI) ([6]; last day of 28 days dosing, Compound 101 6 mg/kg QD PO): 33%

Structure (SMILES): CC1(C)CNC[C@@H](Nc2ncc(C(F)(F)F)c(-c3c[nH]c4c(P(C)(C)=O)c(C#N)ccc34)n2)C1 [Compound 102, (S)-7-(dimethylphosphoryl)-3-(2-((5,5-dimethylpiperidin-3-yl)amino)-5-(trifluoromethyl)pyrimidin-4-yl)-1H-indole-6-carbonitrile]
- EC50 (HCC70 cells): 2.1 nM

Structure (SMILES): C[C@]12CC[C@@H]3c4ccc(O)cc4C[C@@H](CCCCCCCCC[S+]([O-])CCCC(F)(F)C(F)(F)F)[C@H]3[C@@H]1CC[C@@H]2O (stereo partly drawn) [fulvestrant]
- Tumor growth inhibition (TGI) [3]: 60%
- anti-tumor activity (in words) [6]: no activity

Structure (SMILES): CC(=O)c1c(C)c2cnc(Nc3ccc(N4CCNCC4)cn3)nc2n(C2CCCC2)c1=O [palbociclib]
- Tumor growth inhibition (TGI) [3]: 21%
- anti-tumor activity (in words) [6]: no activity
